We go through 5 compounds from US20240299318A1, “AMISELIMOD FOR PREVENTING, TREATING OR AMELIORATING ULCERATIVE COLITIS” (Bausch Health Ireland Limited, priority 2021, published 2024).

Read-outs that look alike come from different tables or passages of the source.

One series concerns the target human S1P1 receptor (Homo sapiens, UniProt P21453). Nature of the series: agonistic activity at human S1P1 receptor. The conditions noted are these: compared with S1P4 and S1P5. It is filed as biochemical.
The target in the next series is S1P3 receptor (Homo sapiens, UniProt Q99500). Put plainly: agonistic activity at S1P3 receptor. In kind it is biochemical.
The target in another series is T1, human S1P4 receptor (Homo sapiens, UniProt O95977).
T1 sequence (O95977 1-384): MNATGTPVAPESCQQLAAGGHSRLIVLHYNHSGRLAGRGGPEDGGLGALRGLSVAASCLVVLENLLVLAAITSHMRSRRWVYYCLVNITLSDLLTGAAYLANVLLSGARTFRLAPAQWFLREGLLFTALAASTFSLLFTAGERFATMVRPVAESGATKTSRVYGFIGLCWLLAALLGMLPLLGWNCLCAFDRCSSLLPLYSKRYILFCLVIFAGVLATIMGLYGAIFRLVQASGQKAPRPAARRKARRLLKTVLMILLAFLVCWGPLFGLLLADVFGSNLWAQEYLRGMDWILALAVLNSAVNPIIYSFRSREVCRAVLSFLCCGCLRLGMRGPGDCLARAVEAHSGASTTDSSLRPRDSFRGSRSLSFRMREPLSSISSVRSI
Nature of the series: agonistic activity at human S1P4 receptor. It is filed as biochemical. As to conditions: less potent than at human S1P1 receptor.

The target of a further series is human S1Ps receptor (Homo sapiens, UniProt Q9H228). Put plainly: agonistic activity at human S1Ps receptor. It is filed as biochemical. As to conditions: less potent than at human S1P1 receptor.
In a further series the target is human S1P2 receptor (Homo sapiens, UniProt O95136). Put plainly: agonistic activity at human S1P2 receptor. It is filed as biochemical.
Series [1] deals with peripheral blood lymphocytes (PBLs). Put plainly: reduction of peripheral blood lymphocytes after oral dose, cynomolgus monkeys. In kind it is in vivo. The conditions noted are these: oral dose of 0.1 mg/kg or higher.
A further series has as its system healthy subjects. Put plainly: Phase 1 randomized, double-blind, placebo-controlled safety study, upwardly titrated amiselimod. The conditions noted are these: for discontinuation rate: safety population, 95 subjects per group. It is filed as in vivo, human. The procedure: The safety of amiselimod in healthy subjects was evaluated in a Phase 1 randomized, double-blind, placebo-controlled study where the dose of amiselimod was upwardly titrated.
A randomized, double-blind, multiple-dose, placebo-controlled, parallel study with a nested crossover design evaluated the safety and tolerability profile of amiselimod. Healthy adults were randomized in a 2:1:1 ratio during a 28-day treatment period accordingly: a single dose of placebo followed by oral amiselimod (upwardly titrated in doses ranging from 0.4 to 1.6 mg to achieve steady-state concentrations); a single dose of oral moxifloxacin 400 mg followed by placebo; or placebo followed by a single dose of moxifloxacin 400 mg (for the safety analysis, moxifloxacin arms were combined). The safety population included all subjects who received at least one dose of treatment. Adverse events (AE) and serious AEs were collected. Treatment-emergent AEs were defined as an AE that was starting or worsening at the time of or after study drug administration. Changes in clinical laboratory parameters (including lymphocyte counts), physical examinations, vital signs, and electrocardiogram parameters (including heart rate, PR, QRS, and QT intervals) were recorded. Subjects were permitted to withdraw if lymphocyte counts were ≤0.2×10^9/L.

Series [2] can be described thus: study of amiselimod 0.4 mg QD: steady state, AUC, Cmax, lymphocyte counts. It is filed as in vivo. The conditions noted are these: for increase of steady-state AUC on day 13 compared with day 1 / increase of steady-state Cmax on day 13 compared with day 1: amiselimod 0.4 mg QD. The method, then: Amiselimod has a half-life of about 400 hours. For example, amiselimod has a terminal half-life that is about 20 times longer than etrasimod, which has a half-life of about 17-20 hours. In a study, a daily dose of amiselimod achieved a therapeutic steady state after 14 days of 0.4 mg QD administration. On day 13, the steady-state AUC and Cmax for amiselimod 0.4 mg QD increased by 10-fold for amiselimod and by 4-fold for amiselimod-P compared with day 1. This increase in AUC and Cmax correlated with gradual decrease in absolute lymphocyte counts. The reduction in lymphocyte counts was maintained after amiselimod discontinuation, indicating a persistent therapeutic amiselimod AUC owing in part to the associated half-life. Accordingly, amiselimod may be administered in accordance with the methods described herein less frequently than once daily to achieve the desired treatment such, as for example, maintenance of Ulcerative Colitis. In some embodiments, the second dose may be administered during the second administration period (e.g., the maintenance dose phase) QD, BID, TID, or QID every other day during the second administration period or every two days during the second administration period or every three days during the second administration period or every four days during the second administration period or every five days during the second administration period or every six days during the second administration period or every seven days during the second administration period.

For a further series, the system named is heart rate. Nature of the series: negative chronotropic activity. The conditions noted are these: in vivo. The text has this:
Chronotropic effects in the heart can include changes in the heart rate or rhythm. Negative chronotropic effects are those that result in a decreased heart rate and include bradyarrhythmia (bradycardia).

The nature of series [3]: half-life and accumulation to steady state. It is filed as in vivo, humans. As to conditions: for half-life: in humans; for period of accumulation to steady state: inferred from long half-life.
In series [4] the test system is peripheral blood lymphocytes (PBLs). Put plainly: reduction of peripheral blood lymphocytes after oral dose, rats. It is filed as in vivo. As to conditions: oral dose of 0.1 mg/kg or higher.
The test system is the same in series [5]. Put plainly: reduction of peripheral blood lymphocytes after oral dose, mice. It is filed as in vivo. As to conditions: oral dose of 0.1 mg/kg or higher.
In series [6] the test system is colitis in the adoptive transfer of CD4+CD45RBhigh T cells. Nature of the series: colitis in the adoptive transfer of CD4+CD45RBhigh T cells in SCID mice. In kind it is in vivo. As to conditions: oral administration.
The conditions of series [7]: comparator etrasimod; cited from earlier work.

Chain of human S1P1 receptor (P21453 whole entry): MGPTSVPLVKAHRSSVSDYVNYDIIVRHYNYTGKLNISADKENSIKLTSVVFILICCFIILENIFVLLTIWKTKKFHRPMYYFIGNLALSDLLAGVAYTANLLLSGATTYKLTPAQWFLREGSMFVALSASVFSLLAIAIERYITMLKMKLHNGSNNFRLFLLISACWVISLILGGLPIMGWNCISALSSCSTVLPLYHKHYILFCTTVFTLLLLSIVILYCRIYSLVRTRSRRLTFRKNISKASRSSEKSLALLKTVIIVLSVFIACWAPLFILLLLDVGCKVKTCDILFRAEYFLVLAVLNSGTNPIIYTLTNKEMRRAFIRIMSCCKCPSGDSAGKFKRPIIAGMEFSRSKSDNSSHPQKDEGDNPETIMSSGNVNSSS
Chain of S1P3 receptor (Q99500 whole entry): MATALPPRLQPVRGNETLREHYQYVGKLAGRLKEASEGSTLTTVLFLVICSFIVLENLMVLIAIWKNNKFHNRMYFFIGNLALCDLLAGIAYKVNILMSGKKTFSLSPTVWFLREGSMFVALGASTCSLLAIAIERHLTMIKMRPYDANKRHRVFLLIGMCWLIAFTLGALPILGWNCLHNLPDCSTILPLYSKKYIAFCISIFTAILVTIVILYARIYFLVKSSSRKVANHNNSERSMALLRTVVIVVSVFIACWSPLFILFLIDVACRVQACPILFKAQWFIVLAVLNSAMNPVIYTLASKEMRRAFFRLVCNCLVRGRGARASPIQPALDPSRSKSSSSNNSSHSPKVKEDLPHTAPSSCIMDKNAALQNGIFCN
Chain of human S1Ps receptor (Q9H228 whole entry): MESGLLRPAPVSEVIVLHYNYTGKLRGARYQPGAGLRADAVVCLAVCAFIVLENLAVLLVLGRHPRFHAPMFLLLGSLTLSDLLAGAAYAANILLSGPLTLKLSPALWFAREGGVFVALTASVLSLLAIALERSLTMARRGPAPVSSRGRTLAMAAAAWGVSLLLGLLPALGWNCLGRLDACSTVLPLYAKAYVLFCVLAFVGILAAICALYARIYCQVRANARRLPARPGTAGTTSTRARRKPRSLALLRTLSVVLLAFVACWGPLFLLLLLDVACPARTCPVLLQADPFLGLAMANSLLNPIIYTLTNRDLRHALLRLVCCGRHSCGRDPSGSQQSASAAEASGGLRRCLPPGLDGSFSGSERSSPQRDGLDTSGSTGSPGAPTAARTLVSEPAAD
Chain of human S1P2 receptor (O95136 whole entry): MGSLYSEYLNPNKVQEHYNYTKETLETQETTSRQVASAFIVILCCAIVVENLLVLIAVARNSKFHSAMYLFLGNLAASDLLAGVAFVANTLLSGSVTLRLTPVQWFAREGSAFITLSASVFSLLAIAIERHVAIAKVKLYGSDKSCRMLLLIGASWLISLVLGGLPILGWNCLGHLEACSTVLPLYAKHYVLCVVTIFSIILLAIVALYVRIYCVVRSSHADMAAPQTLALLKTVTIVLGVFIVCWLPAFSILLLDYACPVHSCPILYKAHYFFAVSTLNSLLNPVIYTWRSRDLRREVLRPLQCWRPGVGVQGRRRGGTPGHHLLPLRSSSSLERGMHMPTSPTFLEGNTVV

`CCCCCCCOc1ccc(CCC(N)(CO)COP(=O)(O)O)cc1C(F)(F)F` (stereo in doubt) [(S)-MT-1303-P]: the “agonistic activity at human S1P1 receptor” value at human S1P1 receptor is “more potently than at human S1P4 receptor and human S1Ps receptor”. At S1P3 receptor, the “agonistic activity at S1P3 receptor” value was “no agonistic activity”. The “agonistic activity at human S1P4 receptor” value at human S1P4 receptor is given as “agonistic activity”. In addition, the “agonistic activity at human S1Ps receptor” value on human S1Ps receptor was “agonistic activity”. Moreover, the “agonistic activity at human S1P2 receptor” value on human S1P2 receptor was “no agonistic activity”.

In general, half-life refers to the time in which the quantity being followed falls by half. Take `CCCCCCCOc1ccc(CCC(N)(CO)CO)cc1C(F)(F)F` [amiselimod]: the “number of peripheral blood lymphocytes (PBLs)” value (from here on “number … (PBLs)”) in series [1] was “significantly reduced”. Further, in the series with healthy subjects (Days 1-13, n = 95), the Constipation was 8 (8) n (%), the Dizziness is 5 (5) n (%), the Headache is on record as 4 (4) n (%) and the “Number of subjects with an adverse event” value is reported as 55 (58) n (%). Besides, in the series with healthy subjects (Days 1-13, n = 95), the “Upper respiratory tract infection” value is 1 (1) n (%) and the “White blood cell count decreased” value was 18 (19) n (%). Also, in the series with healthy subjects (Days 14+, n = 92), the Constipation is 6 (7) n (%), the Dizziness is reported as 6 (7) n (%), the Headache is recorded as 11 (12) n (%) and the “Number of subjects with an adverse event” value is on record as 57 (62) n (%). In the series with healthy subjects (Days 14+, n = 92), the “Upper respiratory tract infection” value is listed as 6 (7) n (%) and the “White blood cell count decreased” value is given as 13 (14) n (%). Moreover, in the series with healthy subjects (day 26, after amiselimod 1.6 mg for 3 of the preceding 4 days), the “amiselimod-related serious AE of atrial fibrillation” value is “One subject”. The “mean absolute lymphocyte count, nadir” value in the series on healthy subjects (day 27) came out at 0.424 thou/μL. The “changes to vital signs, physical examinations, and ECG parameters” value in the series with healthy subjects (in vivo) was “within normal limits”. Besides, the tolerability result with healthy subjects (multiple, upwardly titrated doses, healthy subjects) is reported as “generally well tolerated”. Moreover, in the series on healthy subjects (predose), the “mean absolute lymphocyte count” value came out at 1.681 thou/μL. Also, the discontinuation rate with healthy subjects was 8%. The “time to therapeutic steady state” value in series [2] (0.4 mg QD administration) is 14 days. Besides, the “reduction in lymphocyte counts after discontinuation” value in [2] (after amiselimod discontinuation) was “maintained”. Moreover, in series [2], the “increase of steady-state AUC on day 13 compared with day 1” value is listed as 10 fold and the “increase of steady-state Cmax on day 13 compared with day 1” value is recorded as 10 fold. For the same compound, the negative chronotropic activity result in the series on heart rate is “lack of negative chronotropic activity”. The half-life in series [3] (human, in vivo, read-out: half-life (converted)) was roughly 16.7 days. Also, in series [3], the half-life entry was “approximately 400 hours” and the “period of accumulation to steady state” value was “about 10 weeks”. In addition, the “terminal half-life relative to etrasimod” value in [3] (longer than etrasimod) was “about 20 times”. Further, the “number … (PBLs)” value in series [4] was “significantly reduced”. Moreover, the “number … (PBLs)” value in [5] was “significantly reduced”. In [6], the colitis result is on record as “reduced colitis” and the “effect on colitis compared with murine anti-TNF-α antibody” value was “comparable to that of a murine anti-tumor necrosis factor-α (TNF-α) antibody”.

As to `O=C(O)C[C@H]1CCc2c1[nH]c1ccc(OCc3ccc(C4CCCC4)c(C(F)(F)F)c3)cc21` [etrasimod], in [7], the half-life is 0.708 to 0.833 days.

On to `CCCCCCCOc1ccc(CC[C@@](N)(CO)COP(=O)(O)O)cc1C(F)(F)F` [MT-1303-P], for which, in series [2], the “increase of steady-state AUC on day 13 compared with day 1” value is recorded as 4 fold and the “increase of steady-state Cmax on day 13 compared with day 1” value was determined as 4 fold. Besides, in series [3], the half-life result was “approximately 400 hours” and the “period of accumulation to steady state” value is “about 10 weeks”.

In the case of `COc1c(N2C[C@@H]3CCCN[C@@H]3C2)c(F)cc2c(=O)c(C(=O)O)cn(C3CC3)c12` [Moxifloxacin, moxifloxacin, reference compound], in the series on healthy subjects (Days 1-26, n = 95), the Constipation is 11 (12) n (%), the Dizziness is recorded as 1 (1) n (%), the Headache is 12 (13) n (%) and the “Number of subjects with an adverse event” value is reported as 49 (52) n (%). Further, in the series on healthy subjects (Days 1-26, n = 95), the “Upper respiratory tract infection” value is listed as 1 (1) n (%) and the “White blood cell count decreased” value is given as 0 n (%). Further, in the series with healthy subjects (Days 27+, n = 46), the Constipation was 0 n (%), the Dizziness is 1 (2) n (%), the Headache is 0 n (%) and the “Number of subjects with an adverse event” value is listed as 7 (15) n (%). Further, in the series with healthy subjects (Days 27+, n = 46), the “Upper respiratory tract infection” value is 0 n (%) and the “White blood cell count decreased” value is on record as 0 n (%). In addition, the discontinuation rate with healthy subjects is listed as 4%.
